Measurements taken from US20230145213A1, “Pre-conditioned mesenchymal stem cells and preparations and applications thereof” (BUDDHIST TZU CHI MEDICAL FOUNDATION, priority 2021, published 2023).

Legend:
SH-SY5Y cells [1] = assay: Transwell co-culture assay, SH-SY5Y cell viability by MTT; assay type: cell-based
Excerpt: In this and the following examples, human neuroblastoma cell line SH-SY5Y (a cell model of dopaminergic neurons for Parkinson's disease research) that was damaged by 6-hydroxydopamine (6-OHDA, i.e., 2,4,5-trihydroxyphenethylamine)-induced oxidative stress was used to assess the effects of GA on the homing ability of MSCs and the neuroprotective effects of GA pre-treated MSCs and the exosomes derived therefrom. SH-SY5Y cells were obtained from the American Type Culture Collection (ATCC; Manassas, Va., USA). The SH-SY5Y cells were cultured in a humidified incubator at 37° C. with 5% CO2. DMEM (Life Technologies, USA) supplemented with 10% FBS (Hyclone, Thermo Fisher Scientific, USA) and 1% penicillin-streptomycin (Gibco, Thermo Fisher Scientific, USA) was used for culturing of the SH-SY5Y cells.
To determine whether GA can promote MSCs to rescue nerve cell death, transwell co-culture assay was performed where WJMSCs (2×10^4 cells) pre-treated with 0, 20, 40, or 80 μM GA for 24 hours were placed in the upper chamber of a transwell insert, and SH-SY5Y cells (3×10^4 cells) treated with 100 μM 6-OHDA were seeded in the bottom well of the transwell plate. After co-culture of the cells at 37° C. for 24 hours, the SH-SY5Y cell viability was determined by MTT assay. […]

SH-SY5Y cells [2] = assay: Western blotting of apoptosis-related, anti-apoptotic and OXPHOS proteins in 6-OHDA-stimulated SH-SY5Y cells; assay type: cell-based, human; conditions: FIG. 5C
Description: To further investigate the molecular events associated with the anti-apoptotic effects of GA pre-treated MSC-derived exosomes, the expression of apoptosis-related and anti-apoptotic proteins in 6-OHDA-stimulated SH-SY5Y cells was measured using western blotting. The damaged SH-SY5Y cells were treated with exosomes isolated either from GA pre-treated WJMSCs (80 μM GA for 24 hours) or untreated WJMSCs.
Moreover, the expression of mitochondrial proteins involved in oxidative phosphorylation (OXPHOS), including ATP5A, UQCRC2, MTCO1, SDHB, and NDUFB8, was examined by western blotting.

SH-SY5Y cells [3] = assay: Autophagic flux in SH-SY5Y cells by LC3B immunofluorescence and western blotting; assay type: cell-based, human
Description: SH-SY5Y cells under 6-OHDA stimulation were treated with exosomes isolated either from GA pre-treated WJMSCs (80 μM GA for 24 hours) or untreated WJMSCs. For immunofluorescence staining, the treated cells were fixed in 4% PFA, incubated with an anti-LC3B primary antibody followed by a fluorophore-conjugated secondary antibody, and stained with 4′,6-diamidino-2-phenylindole (DAPI). The SH-SY5Y cells were then visualized by a fluorescence microscope (Olympus).

| Structure (SMILES) | SH-SY5Y cell viability, effect of 6-OHDA (SH-SY5Y cells [1]; 100 μM 6-OHDA, MTT, FIG. 3A) | expression of mitochondrial OXPHOS proteins (ATP5A, UQCRC2, MTCO1, SDHB, NDUFB8) (SH-SY5Y cells [2]) | LC3 puncta (autophagosome formation) in SH-SY5Y cells (SH-SY5Y cells [3]; immunofluorescence, anti-LC3B, FIG. 6A) | autophagy-related protein expression (Beclin-1, LC3B, p62) in SH-SY5Y cells (SH-SY5Y cells [3]; western blotting, FIG. 6B) | protective effect of the GA pre-treated WJMSCs on SH-SY5Y viability in the presence of GW4869 (SH-SY5Y cells [1]; co-culture assay with exosome generation inhibitor, FIG. 3B) |
| --- | --- | --- | --- | --- | --- |
| NCCc1cc(O)c(O)cc1O [6-OHDA, 2,4,5-trihydroxyphenethylamine] | decreased SH-SY5Y cell viability | downregulated the expression of the OXPHOS proteins | abundant | increased Beclin-1 and LC3B expression but decreased p62 protein expression |  |
| O=C(/C=C/c1ccc(/C=C/C(=O)Nc2ccc(C3=NCCN3)cc2)cc1)Nc1ccc(C2=NCCN2)cc1 [GW4869] |  |  |  |  | suppressed |
